{"source": "ChEMBL document CHEMBL5113420", "about": "“Selective inhibition of histone deacetylase 3 by novel hydrazide based small molecules as therapeutic intervention for the treatment of cancer” (Eur J Med Chem, 2022)", "key": {"[1]": {"assay": "AUC (0 to infinity) in Wistar rat at 25 mg/kg, iv measured upto 24 hrs by HPLC analysis", "assay_type": "ADME, organism-based", "set-up": "time < 24 hrs, dose 25 mg/kg, route iv", "conditions": "in vivo"}, "[2]": {"system": "4T1", "assay": "Induction of apoptosis in mouse 4T1 Luc cells implanted in Balb/c mouse assessed as increase in cytochrome c level at 15 to 25 mg/kg incubated for 24 hrs by Western blot analysis", "assay_type": "functional, organism-based", "conditions": "dose 15-25 mg/kg"}, "[3]": {"system": "4T1", "assay": "Antitumor activity against mouse 4T1 Luc cells implanted in Balb/c mouse assessed as decrease in Ki-67 in tumor tissue at 15 to 25 mg/kg by immunohistochemical analysis", "assay_type": "functional, organism-based", "conditions": "dose 15-25 mg/kg"}, "[4]": {"system": "4T1", "assay": "Induction of apoptosis in mouse 4T1 Luc cells implanted in Balb/c mouse downregulation of Bcl2 expression at 15 to 25 mg/kg incubated for 24 hrs by Western blot analysis", "assay_type": "functional, organism-based", "conditions": "dose 15-25 mg/kg"}, "[5]": {"assay": "Toxicity in Balb/c mouse implanted with mouse 4T1 Luc cells assessed as heart tissue damage at 15 mg/kg by H and E staining", "assay_type": "organism-based", "conditions": "in vivo"}, "[6]": {"assay": "Cmax in Wistar rat at 15 mg/kg, ip measured upto 24 hrs by HPLC analysis", "assay_type": "ADME, organism-based", "set-up": "dose 15 mg/kg, time < 24 hrs, route ip", "conditions": "in vivo"}, "[7]": {"assay": "Apparent volume of distribution during terminal phase in Wistar rat at 15 mg/kg, ip measured upto 24 hrs by HPLC analysis", "assay_type": "ADME, organism-based", "conditions": "in vivo"}, "[8]": {"assay": "MRT in Wistar rat at 25 mg/kg, iv measured upto 24 hrs by HPLC analysis", "assay_type": "ADME, organism-based", "conditions": "in vivo"}, "[9]": {"system": "4T1", "assay": "Antitumor activity against mouse 4T1 Luc cells implanted in Balb/c mouse assessed as increase in fluorescence at 25 mg/kg using luciferin-D as substrate at 100 mg/kg, ip measured on day 10 and 21 by IVIS Lumina III analysis", "assay_type": "functional, organism-based"}, "[10]": {"assay": "Half life in Wistar rat at 25 mg/kg, iv measured upto 24 hrs by HPLC analysis", "assay_type": "ADME, organism-based", "conditions": "in vivo"}, "[11]": {"system": "Mus musculus", "assay": "Antitumor activity against mouse 4T1 Luc cells implanted in Balb/c mouse assessed as increase in animal survival at 15 mg/kg measured after 21 days", "assay_type": "functional, organism-based", "conditions": "time 21.0 day"}, "[12]": {"assay": "Toxicity in Balb/c mouse implanted with mouse 4T1-luc cells assessed as weight loss at 15 mg/kg, ip", "assay_type": "organism-based", "conditions": "in vivo"}, "[13]": {"system": "4T1", "assay": "Induction of apoptosis in mouse 4T1 Luc cells implanted in Balb/c mouse reduction in EGFR expression at 15 to 25 mg/kg incubated for 24 hrs by Western blot analysis", "assay_type": "functional, organism-based", "conditions": "dose 15-25 mg/kg"}, "[14]": {"assay": "MRT in Wistar rat at 15 mg/kg, iv measured upto 24 hrs by HPLC analysis", "assay_type": "ADME, organism-based", "conditions": "in vivo"}, "[15]": {"assay": "AUCt in Wistar rat at 25 mg/kg, iv measured upto 24 hrs by HPLC analysis", "assay_type": "ADME, organism-based", "set-up": "dose 25 mg/kg, time < 24 hrs, route iv", "conditions": "in vivo"}, "[16]": {"assay": "Tmax in Wistar rat at 15 mg/kg, ip measured upto 24 hrs by HPLC analysis", "assay_type": "ADME, organism-based", "conditions": "in vivo"}, "[17]": {"assay": "Cmax in Wistar rat at 25 mg/kg, iv measured upto 24 hrs by HPLC analysis", "assay_type": "ADME, organism-based", "set-up": "dose 25 mg/kg, time < 24 hrs, route iv", "conditions": "in vivo"}, "[18]": {"system": "4T1", "assay": "Induction of apoptosis in mouse 4T1 Luc cells implanted in Balb/c mouse assessed as upregulation of caspase 3 level at 15 to 25 mg/kg incubated for 24 hrs by Western blot analysis", "assay_type": "functional, organism-based", "conditions": "dose 15-25 mg/kg"}, "[19]": {"system": "4T1", "assay": "Antitumor activity against mouse 4T1-luc cells Balb/c mouse assessed as reduction in tumor volume at 25 mg/kg, ip measured once 3 days for 21 days (reference value: 49.16 to 1032.50 mm^3)", "assay_type": "functional", "conditions": "time 3 day"}, "[20]": {"system": "4T1", "assay": "Antitumor activity against mouse 4T1 Luc cells implanted in Balb/c mouse assessed as reduction in metastasis at 15 to 25 mg/kg measured after 21 days by Kaplan-Meier method", "assay_type": "functional, organism-based", "conditions": "dose 15-25 mg/kg, time 21.0 day"}, "[21]": {"assay": "AUCt in Wistar rat at 15 mg/kg, ip measured upto 24 hrs by HPLC analysis", "assay_type": "ADME, organism-based", "set-up": "time < 24 hrs, dose 15 mg/kg, route ip", "conditions": "in vivo"}, "[22]": {"assay": "Half life in Wistar rat at 15 mg/kg, ip measured upto 24 hrs by HPLC analysis", "assay_type": "ADME, organism-based", "conditions": "in vivo"}, "[23]": {"assay": "Toxicity in Balb/c mouse implanted with mouse 4T1 Luc cells assessed as spleen tissue damage at 15 mg/kg by H and E staining", "assay_type": "organism-based", "conditions": "in vivo"}, "[24]": {"assay": "Toxicity in Balb/c mouse implanted with mouse 4T1 Luc cells assessed as lung tissue damage at 15 mg/kg by H and E staining", "assay_type": "organism-based", "conditions": "in vivo"}, "[25]": {"system": "4T1", "assay": "Induction of apoptosis in mouse 4T1 Luc cells implanted in Balb/c mouse assessed as increase in ROS generation at 25 mg/kg by fluorescent microscopy analysis", "assay_type": "functional, organism-based"}, "[26]": {"assay": "Cmax in Wistar rat at 15 mg/kg, iv measured upto 24 hrs by HPLC analysis", "assay_type": "ADME, organism-based", "set-up": "time < 24 hrs, dose 15 mg/kg, route iv", "conditions": "in vivo"}, "[27]": {"assay": "MRT in Wistar rat at 15 mg/kg, ip measured upto 24 hrs by HPLC analysis", "assay_type": "ADME, organism-based", "conditions": "in vivo"}, "[28]": {"system": "4T1", "assay": "Induction of intracellular ROS generation in mouse 4T1 Luc cells implanted in Balb/c mouse assessed as increase fluorescence intensity at 15 mg/kg measured after 21 days by DCFH-DA probe based fluorescent microscopy analysis", "assay_type": "functional, organism-based", "conditions": "time 21.0 day"}, "[29]": {"assay": "Toxicity in Balb/c mouse implanted with mouse 4T1 Luc cells assessed as kidney tissue damage at 15 mg/kg by H and E staining", "assay_type": "organism-based", "conditions": "in vivo"}, "[30]": {"assay": "AUC (0 to infinity) in Wistar rat at 15 mg/kg, iv measured upto 24 hrs by HPLC analysis", "assay_type": "ADME, organism-based", "set-up": "time < 24 hrs, dose 15 mg/kg, route iv", "conditions": "in vivo"}, "[31]": {"assay": "Toxicity in Balb/c mouse implanted with mouse 4T1-luc cells assessed as mortality at 15 to 25 mg/kg, ip", "assay_type": "organism-based", "conditions": "in vivo, dose 15-25 mg/kg"}, "[32]": {"assay": "Toxicity in Balb/c mouse implanted with mouse 4T1 Luc cells assessed as liver tissue damage at 15 mg/kg by H and E staining", "assay_type": "organism-based", "conditions": "in vivo"}, "[33]": {"assay": "Tmax in Wistar rat at 15 mg/kg, iv measured upto 24 hrs by HPLC analysis", "assay_type": "ADME, organism-based", "conditions": "in vivo"}, "[34]": {"system": "4T1", "assay": "Cytotoxicity against mouse 4T1 cells assessed as increase in chromosomal condensation at 1.92 uM measured after 48 hrs by acridine orange and DAPI staining based fluorescence microscope assay", "assay_type": "functional, cell-based"}, "[35]": {"system": "4T1", "assay": "Cytotoxicity against mouse 4T1 cells assessed as increase in chromosomal condensation at 8.4 uM measured after 48 hrs by acridine orange and DAPI staining based fluorescence microscope assay", "assay_type": "functional, cell-based"}, "[36]": {"assay": "AUC (0 to infinity) in Wistar rat at 15 mg/kg, ip measured upto 24 hrs by HPLC analysis", "assay_type": "ADME, organism-based", "set-up": "time < 24 hrs, dose 15 mg/kg, route ip", "conditions": "in vivo"}}, "note": "Values joined by “and” are separate entries in the source; they are usually repeats but may differ in a detail not shown here. Equal values may be shown once. Active and inactive are the calls of the source. The rule behind the calls is not given here.", "data": [{"smiles": "CCCNNC(=O)c1ccc(Nc2ccccc2)cc1", "values": [{"measurement": "AUC(0-inf)", "setting": "[1]", "result": "200000 ng·h/mL and 744 µM·h"}, {"measurement": "Activity", "setting": "[2]", "result": "Active"}, {"measurement": "Activity", "setting": "[3]", "result": "Active"}, {"measurement": "Activity", "setting": "[4]", "result": "Active"}, {"measurement": "Activity", "setting": "[5]", "result": "Non-Toxic"}, {"measurement": "Cmax", "setting": "[6]", "result": "8340 ng/mL and 31 µM"}, {"measurement": "Vz/F", "setting": "[7]", "result": "2.16 (mg/kg)/(ug/ml) and 1.44 (mg/kg)/(uM)"}, {"measurement": "MRT", "setting": "[8]", "result": 5.13, "unit": "h"}, {"measurement": "Activity", "setting": "[9]", "result": "Active"}, {"measurement": "half-life", "setting": "[10]", "result": 2.62, "unit": "h"}, {"measurement": "Activity", "setting": "[11]", "result": "Active"}, {"measurement": "Activity", "setting": "[12]", "result": "Non-Toxic"}, {"measurement": "Activity", "setting": "[13]", "result": "Active"}, {"measurement": "MRT", "setting": "[14]", "result": 5.69, "unit": "h"}, {"measurement": "AUC(0-t) at 24 h", "setting": "[15]", "result": "200000 ng·h/mL and 742 µM·h"}, {"measurement": "Tmax", "setting": "[16]", "result": 2, "unit": "h"}, {"measurement": "Cmax", "setting": "[17]", "result": "32100 ng/mL and 120 µM"}, {"measurement": "Activity", "setting": "[18]", "result": "Active"}, {"measurement": "Activity", "setting": "[19]", "result": 51.83, "unit": "mm3"}, {"measurement": "Activity", "setting": "[20]", "result": "Active"}, {"measurement": "AUC(0-t) at 24 h", "setting": "[21]", "result": "28900 ng·h/mL and 107 µM·h"}, {"measurement": "half-life", "setting": "[22]", "result": 3.41, "unit": "h"}, {"measurement": "Activity", "setting": "[23]", "result": "Non-Toxic"}, {"measurement": "Activity", "setting": "[24]", "result": "Non-Toxic"}, {"measurement": "Activity", "setting": "[25]", "result": "Active"}, {"measurement": "Cmax", "setting": "[26]", "result": "26700 ng/mL and 99.3 µM"}, {"measurement": "MRT", "setting": "[27]", "result": 4.16, "unit": "h"}, {"measurement": "Activity", "setting": "[28]", "result": "Active"}, {"measurement": "Activity", "setting": "[29]", "result": "Non-Toxic"}, {"measurement": "AUC(0-inf)", "setting": "[30]", "result": "160000 ng·h/mL and 593 µM·h"}, {"measurement": "Activity", "setting": "[31]", "result": "Non-Toxic"}, {"measurement": "Activity", "setting": "[32]", "result": "Non-Toxic"}, {"measurement": "Tmax", "setting": "[33]", "result": 0.5, "unit": "h"}, {"measurement": "Activity", "setting": "[34]", "result": "Active"}, {"measurement": "Activity", "setting": "[35]", "result": "Active"}, {"measurement": "AUC(0-inf)", "setting": "[36]", "result": "29300 ng·h/mL and 109 µM·h"}]}]}
